Test results published in patent US10703784B2, “Antigens and epitopes derived from Mycobacterium tuberculosis” (priority 2011, dated 2020).
Several values for one entry are separate records, joined by “and”; a condition that tells them apart may be missing. Equal values may be shown once. Read-outs that look alike come from different tables or passages of the source.

B1: Rv0290: MTB protein, novel CD4 T cell antigen; Cell wall and cell processes, Island 1, Esx-3 (protein, listed as Mycobacterium tuberculosis)
chain: MSGTVMQIVRVAILADSRLTEMALPAELPLREILPAVQRLVVPSAQNGDGGQADSGAAVQLSLAPVGGQPFSLDASLDTVGVVDGDLLVLQPVPAGPAAPGIVEDIADAAMIFSTSRLKPWGIAHIQRGALAAVIAVALLATGLTVTYRVATGVLAGLLAVAGIAVASALAGLLITIRSPRSGIALSIAALVPIGAALALAVPGKFGPAQVLLGAAGVAAWSLIALMIPSAERERVVAFFTAAAVVGASVALAAGAQLLWQLPLLSIGCGLIVAALLVTIQAAQLSALWARFPLPVIPAPGDPTPSAPPLRLLEDLPRRVRVSDAHQSGFIAAAVLLSVLGSVAIAVRPEALSVVGWYLVAATAAAATLRARVWDSAACKAWLLAQPYLVAGVLLVFYTATGRYVAAFGAVLVLAVLMLAWVVVALNPGIASPESYSLPLRRLLGLVAAGLDVSLIPVMAYLVGLFAWVLNR

Columns and labels:
Type in all cases: cell-based, human
[1] = system: PBMCs from LTBI donors (IFN-γ production)
[2] = system: PBMCs depleted of CD4+ or CD8+ T cells
[3] = system: CD4-purified cells from LTBI donors; details: range over donors analyzed
[4] = individual MTB epitope peptide, one value per responding LTBI donor
[5] = phenotype of the responding T cells per donor, n.d. = assay not done

Molecule	SFC [1, 4]	T cell phenotype [2, 5]	other results
AAASWDALAAELASA	217.5 and 130.0 and 440.8	CD4	
AAGGWDSLAAELATT	130.0 and 31.7	CD4 and undetectable	
AAIHEMFVNTLQMSS	25.0 and 165.0	CD8	
AAIHEMFVNTLVASS	41.7 and 160.0 and 26.7 and 61.7	CD8 and undetectable (2×)	
AALPLLFFALAGQRI	81.7 and 36.7 and 33.3 and 143.3 and 45.0	CD4 (3×) and undetectable (2×)	
AATQARAAAAAFEAA	25.0	undetectable	
AAVPAVGAAAGAPAA	203.3 and 28.3 and 20.0 and 30.0	CD4 (2×) and undetectable (2×)	
ADYLRMWIQAATVMS	375.0 and 35.0 and 128.3 and 48.3 and 26.7 and 75.0	CD4 (5×) and undetectable	
AEAPAAAAAPEEQVQ	20.0	CD4	
AELMILIATNLLGQN	33.3 and 90.0	CD4 and undetectable	
AGCQTYKWETFLTSE			SFC [1]: 60.0 and 55.8 and 36.7 and 51.7; T cell phenotype [2]: CD4 and undetectable
ALLPRAGAAAAAALP	45.0 and 26.7	CD4	
ALQSHDDVALVSVMW	28.3 and 61.7	CD4 and undetectable	
ALSAEYAAVAQELSV	31.7 and 46.7	CD4	
ALSRVHSMFLGTGGS	71.7 and 43.3	CD4	
APQINFFYYLGEPIV	20.0	undetectable	
APYVAWMRATAIQAE	41.7	undetectable	
AQIYQAVSAQAAAIH	225.0 and 86.7	CD4	
AQLSQLISLLPSTLQ	50.0 and 51.7 and 23.3	undetectable	
AQNGVQAMSSLGSSL	46.7	CD4	
AVLVATNFFGINTIP			T cell phenotype [2]: CD4 and undetectable

Molecule	SFC [1, 4]	T cell phenotype [2, 5]	other results
AWMSAAAAQAEQAAT	25.0	undetectable	
AYGSFVRTVSLPVGA	271.7 and 45.0	CD4	
DPMVQIPRLVANNTR	60.0	undetectable	
DYVRMWVQAATVMSA	343.3 and 38.3 and 31.7 and 81.7 and 28.3	CD4 (3×) and CD4/CD8 and undetectable	
EIVQFLEETFAAYDQ	103.3 and 105.0 and 25.0 and 80.0	CD4 (3×) and undetectable	
ELFVAAYVPYVAWLV	25.0 and 20.0 and 30.0 and 21.7 and 28.3	undetectable	
FFGQNTAAIAATEAQ	193.3 and 165.0	CD4	
FGQNTASIAATEAQY	110.0 and 26.7	CD4	
FGQNTGAIAAAEARY	108.3 and 276.7	CD4	
FGQNTSAIAAAEAQY	161.7 and 176.7	CD4	
FVQALTTAAASYASV	26.7 and 23.3	undetectable	
GAMVATNFFGINTIP			T cell phenotype [2]: CD4 and undetectable
GEEYLILSARDVLAV	136.7 and 60.0 and 145.0 and 151.7 and 45.0 and 53.3	CD4 (4×) and undetectable (2×)	
GINTIPIAINEAEYV	120.0 and 201.7 and 20.0 and 118.3	CD4 (2×) and undetectable	
GQNYTYKWETFLTRE	26.7 and 66.7 and 50.0 (2×) and 33.3	CD4 and undetectable (4×)	
GTVVLTATFALGAAL	33.3 and 128.3 and 71.7 and 30.0	CD4 (2×) and undetectable (2×)	
GWIISNIFGAIPVLG	195.0 and 41.7 and 58.3 and 26.7	CD4 and undetectable (3×)	
GWSSLGREYAAVAEE	185.0	CD4	
ILPIAEMSVVAMEFG	111.7 and 26.7 and 33.3	CD4 and undetectable (2×)	
INLIIHYVDRPGALG	31.7	undetectable	
IQARAAALAFEQAYA	23.3 and 33.3	CD4 and undetectable	

Molecule	SFC [1, 4]	T cell phenotype [2, 5]	other results
IVQINGRHFDLRAQG	26.7	undetectable	
LAAAAAWDALAAELY	170.0 and 78.3 and 411.7	CD4	
LALVGFLGGLITGIS	65.0 (2×) and 36.7 and 25.0	CD4 and undetectable (3×)	
LAWLVQASANSAAMA	25.0	undetectable	
LGGLWTAVSPHLSPL	38.3 and 25.0	CD4	
LLEFAVVLELAILSI	26.7	undetectable	
LSPISNMVSMANNHM	70.0 and 115.0 and 43.3 and 28.3	CD4 and undetectable (3×)	
MHVSFVMAYPEMLAA	165.0 and 290.0 and 181.7 and 283.3	CD4	
MSFVTTQPEALAAAA	121.7	CD4	
MSQIMYNYPAMMAHA (listed as Mycobacterium tuberculosis) [Rv0288/Rv3019c]			effector memory T cells among tetramer+ cells [3]: 4.8-17.2%; naïve (CCR7+CD45RA+) among tetramer+ cells [3]: 9.8-37.1%
PSPSMGRDIKVQFQS	45.0 and 46.7	undetectable	
QVPSASMGRDIKVQF	53.3 and 48.3	undetectable	
RGKVVLIDFWAYPCI	35.0	undetectable	
SARLRLLRDRLVEGV	138.3 and 23.3	CD4 and undetectable	
SSYAATEVANAAAAS	60.0	CD4	
WFINWYLPISQLFYN	40.0	undetectable	
YAAALVAMPTLAELA	25.0	undetectable	
YASVEAANASPLQVA	35.0	undetectable	
YVAWMSATAALAREA	150.0 and 83.3 and 58.3 and 25.0	CD4 (3×) and undetectable	
B1			Resp. freq. ([1]; fraction of 28 LTBI donors responding to epitopes of the antigen, ex vivo IFN-γ ELISPOT): 29%; Total SFC ([1]; total spot-forming cells, LTBI donors, ex vivo IFN-γ ELISPOT): 1552 SFC
